# According to EP0103895A2, “Novel hydroxylamine derivatives, production and use thereof” (MEIJI SEIKA KABUSHIKI KAISHA, priority 1982, dated 1984):
# Values joined by “and” are separate entries in the source; they are usually repeats but may differ in a detail not shown here. Equal values may be shown once. Read-outs that look alike come from different tables or passages of the source.
# Tests used:
# [1] = tested on: fowl roundworm (Ascaridia galli); assay: Anthelmintic test in chickens artificially infected with fowl roundworm, single oral dose in gelatin capsule, worm bodies counted within 48 hours (Test Examples A1, B1, C1, D1); assay type: in vivo; settings: Ascaridia galli, po, 48 h, read-out: Anthelmintic effect after 48 hours
# In short: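 Anthelmintic percentage derived from counts of worms passed within 48 h plus worms left in the intestine after killing at 48 h. Infection confirmed by fecal examination in three-bird groups; compound given orally once in gelatin capsules at 10/20 (A1, B1), 30/50 (C1) or 15/30 (D1) mg/kg.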
# [2] = tested on: canine strongyloides (Strongyloides stercoralis); assay: Anthelmintic test against canine strongyloides in naturally infected dogs, E.P.G. on 7th day (Test Examples A4, B4, C4, D4); assay type: in vivo
# Description: Three dogs infected with canine strongyloides (naturally infected dogs) were employed by grouping them into a group of two and a group of one.
# As control, only a gelatin capsule was administered orally to the one dog.
# (§1) Before administration and on the 7th day after administration, fecal matter testing was conducted to calculate the E.P.G., and the anthelmintic effect was judged by the changing of the E.P.G. to negative.
# (§2) As control, only gelatin capsules were administered orally to the one dog.
# as §2
# [3] = tested on: canine filaria; Dirofilaria immitis; assay: Test of anthelmintic effect against canine filaria in naturally infected dogs, subcutaneous injection, microfilaria in blood and adult filaria at autopsy (Test Examples A10, B10, C10, D10); assay type: in vivo
# [4] = tested on: Liver fluke; Fasciola hepatica (F. hepatica); assay: Test of anthelmintic effect against rat infected experimentally with liver fluke (Test Examples A11, B11, C11, D11); assay type: in vivo; set-up: key to Presence or absence of fluke egg in fecal matter On 21st day after the last administration: +: indicates detection of fluke egg; -: indicates no detection
# [5] = tested on: Trichostrongylidae (Trichostrongylus colubriformis); assay: Anthelmintic test against sheep Trichostrongylidae in naturally infected sheep, E.P.G. on 7th day (Test Examples A7, B7, C7, D7); assay type: in vivo
# [6] = tested on: fowl roundworm (As. galli); assay: Anthelmintic test in chickens artificially infected with fowl roundworm, compound added to feed, E.P.G. and worm count up to 21st day (Test Examples A2, B2, C2, D2); assay type: in vivo, Ascaridia galli; settings: Ascaridia galli, 504 h, read-out: Anthelmintic effect
# [7] = tested on: canine whipworm (Trichuris vulpis); assay: Anthelmintic test in naturally infected dogs with mixed infections, E.P.G. on 7th day: canine whipworm (Test Examples A3, B3, C3, D3); assay type: in vivo
# Description: (§3) Three dogs with mixed infections by canine whipworm (Trichuris vulpis), canine hookworm (Ancylostoma caninum) and canine roundworm (Toxocara canis) (naturally infected dogs) were employed in a group of two and a group of one.
# (§4) The compound provided for the test was Compound No.Al, and 20 mg/Kg thereof was placed in a gelatin capsule per 1 Kg of body weight, and administered orally to the two dogs. As control, only a gelatin capsule was administered orally to the one dog.
# as §1, §2
# (§5) The same method as in Test Example A3, but the compound provided for the test was Compound No. Cl. 30 mg/Kg of this compound was placed in a gelatin capsule per 1 Kg of body weight and administered orally to the two dogs. As control, only gelatin capsules were administered orally to the one dog.
# [8] = tested on: canine hookworm (Ancylostoma caninum); assay: Anthelmintic test in naturally infected dogs with mixed infections, E.P.G. on 7th day: canine hookworm (Test Examples A3, B3, C3, D3); assay type: in vivo; settings: dogs, 20 mg/Kg orally once, one value per dog
# Description: as §3, §4, §1, §2, §5
# [9] = tested on: canine roundworm (Toxocara canis); assay: Anthelmintic test in naturally infected dogs with mixed infections, E.P.G. on 7th day: canine roundworm (Test Examples A3, B3, C3, D3); assay type: in vivo; settings: dogs, 20 mg/Kg orally once, one value per dog
# Description: as §3, §4, §1, §2, §5
# [10] = tested on: Trichostrongylidae (Trichostrongylus colubriformis); assay: Anthelmintic test against sheep Trichostrongylidae in naturally infected sheep, E.P.G. on 7th day (Test Examples A7, B7, C7, D7); assay type: in vivo; settings: for anthelmintic effect: one administration of 15 mg/Kg
# Description: Two sheep infected with Trichostrongylidae (naturally infected sheep) were employed.
# The compound provided for the test was Compound No. Al, 15 mg of which was placed in a gelatin capsule per 1 Kg of body weight and administered orally to one of the sheep. As a control, only gelatin capsules were administered orally to the other sheep.
# as §1
# As control, only gelatin capsules were administered orally to the other sheep.
# As control, only gelatin capsule was administered orally to the other sheep.
# [11] = tested on: swine roundworm (Ascaris suum); assay: Test of anthelmintic effect in naturally infected pigs, E.P.G. on 7th day: swine roundworm (Test Examples A9, B9, C9, D9); assay type: in vivo
# Description: (§6) Six pigs infected with swine roundworm and swine whipworm (naturally infected pigs) were employed in groups each of two pigs.
# (§7) As a control, only gelatin capsules were administered orally to the two pigs.
# (§8) Before administration and on the 7th day after. administration, fecal matter testing was conducted to calculate the E.P.G., and the anthelmintic effect was judged by the changing of the E.P.G. to negative'.
# (§9) 50 mg of each compound was placed in a gelatin capsule per 1 Kg of body weight and administered orally to each of the two pigs. As control, only gelatin capsules were administered orally to two pigs.
# (§10) 30 mg of each compound was placed in a gelatin capsule per 1 Kg of body weight and administered orally to each of the two pigs. As control, only gelatin capsules were administered orally to two pigs.
# [12] = tested on: swine whipworm (Trichuris suis); assay: Test of anthelmintic effect in naturally infected pigs, E.P.G. on 7th day: swine whipworm (Test Examples A9, B9, C9, D9); assay type: in vivo; settings: pigs, 20 mg/Kg orally once, one value per pig
# Description: as §6, §7, §8, §9, §10
# [13] = dogs, 20 mg/Kg x 3 subcutaneously, autopsy on 10th day after the last administration, one value per dog, 20 mg/kg
compound,measurement,setting,value
"C=CCN(OCC)C(C)=O [Compound B8, N-allyl-N-acetyl-O-ethylhydroxylamine]",inhibition in vivo at 30 mg/kg,"[1]; chickens, 30 mg/Kg orally in gelatin capsule, one value per chicken (No.1-3)",100%
same,inhibition in vivo at 50 mg/kg,"[1]; chickens, 50 mg/Kg orally in gelatin capsule, one value per chicken (No.1-3)",100%
same,Change of E.P.G. Before administration,"[2]; dogs, 20 mg/Kg orally once, baseline, one value per dog, 20 mg/kg","5,300 E.P.G. and 2,600 E.P.G."
same,Change of E.P.G. 7th day,"[2]; dogs, 20 mg/Kg orally once, one value per dog",0 E.P.G.
same,inhibition in vivo at 30 mg/kg,"[3]; Dirofilaria immitis, sc, 240 h, dog, 30 mg/Kg x 3, subcutaneous injection, read-out: Effect on adult filaria: Percent of worms killed",58%
same,inhibition in vivo at 30 mg/kg,"[3]; Dirofilaria immitis, sc, 240 h, dogs, administration of 30 mg/Kg repeated three times, given as about 50% or more, read-out: anthelmintic effect against adult filaria",≥ 50%
same,Number of microfilaria/20 µl on 10th day after the last administration,"[3]; dog, 30 mg/Kg x 3, subcutaneous injection, suspension in 1% Tween 80",0 /20 µl
same,Effect on adult filaria: Number of worms killed/ Total parasite,"[3]; dog, 30 mg/Kg x 3, subcutaneous injection, 30 mg/kg",7/12 and 13/21
same,anthelmintic effect against microfilaria (mf),"[3]; dogs, administration of 30 mg/Kg repeated three times",marked anthelmintic effect
same,Condition of fluke body,"[4]; rat, 50 mg/Kg x 5",dead
same,Presence or absence of fluke egg in fecal matter On 21st day after the last administration,"[4]; rat, 50 mg/Kg x 5",-
same,anthelmintic effect,"[4]; rats, five administrations in a dose of 50 mg/Kg each",marked antihelmintic effect
same,Change of E.P.G. 7th day,[5]; 20 mg/Kg orally once,0 E.P.G.
same,Change of E.P.G. Before administration,"[5]; 20 mg/Kg orally once, baseline","3,400 E.P.G."
same,anthelmintic effect,[5]; one administration of 20 mg/Kg,marked anthelmintic effect
"C#CCN(OC)C(C)=O [Compound A1, N-propargyl-N-acetyl-O-methylhydroxylamine]",inhibition in vivo at 10 ppm,"[6]; po, chickens, 10 ppm added to feed, worm count on 21st day, one value per chicken",80 to 90%
same,inhibition in vivo at 50 ppm,"[6]; po, chickens, 50 ppm added to feed, worm count on 21st day, one value per chicken",100%
same,anthelmintic effect,"[7]; dogs with mixed infections (Trichuris vulpis, Ancylostoma caninum, Toxocara canis; statement covers all three), one administration of 20 mg/Kg",marked anthelmintic effect
same,Change of E.P.G. Before administration,"[7]; dogs, 20 mg/Kg orally once, Trichuris vulpis, baseline, one value per dog, 20 mg/kg","3,200 E.P.G. and 2,700 E.P.G."
same,Change of E.P.G. 7th day,"[7]; dogs, 20 mg/Kg orally once, Trichuris vulpis, one value per dog",0 E.P.G.
same,Change of E.P.G. Before administration,"[8]; baseline, 20 mg/kg","4,500 E.P.G. and 7,800 E.P.G."
same,Change of E.P.G. 7th day,[8],0 E.P.G.
same,Change of E.P.G. Before administration,"[9]; baseline, 20 mg/kg","5,100 E.P.G. and 2,300 E.P.G."
same,Change of E.P.G. 7th day,[9],0 E.P.G.
same,anthelmintic effect,"[2]; dogs, one administration of 10 mg/Kg",marked anthelmintic effect
same,anthelmintic effect,"[2]; dogs, one administration of 20 mg/Kg",marked anthelmintic effect
same,Change of E.P.G. 7th day,[10]; 15 mg/Kg orally once,0 E.P.G.
same,Change of E.P.G. Before administration,"[10]; 15 mg/Kg orally once, baseline","1,600 E.P.G."
same,anthelmintic effect,[10],marked anthelmintic effect
same,anthelmintic effect,"[11]; pigs infected with swine roundworm and swine whipworm (statement covers both), one administration of 20 mg/Kg",marked anthelmintic effect
same,Change of E.P.G. 7th day,"[11]; pigs, 20 mg/Kg orally once, Ascaris suum, one value per pig",0 E.P.G.
same,Change of E.P.G. Before administration,"[12]; baseline, 20 mg/kg","1,300 E.P.G. and 2,100 E.P.G."
same,Change of E.P.G. 7th day,[12],0 E.P.G.
same,inhibition in vivo at 20 mg/kg,"[3]; Dirofilaria immitis, sc, 240 h, dogs, administration of 20 mg/Kg repeated three times, given as about 50% or more, read-out: anthelmintic effect against adult filaria",≥ 50%
same,Effect on adult filaria: Number of worms killed/Total parasites,[3]; [13],7/12 and 5/ 7
same,Effect on adult filaria: Percent of worms killed,[3]; [13],58% and 71%
same,Number of microfilaria/20 µl On 10th day after the last administration,"[3]; dogs, 20 mg/Kg x 3 subcutaneously, earlobe blood, one value per dog",0 /20 µl
same,anthelmintic effect against microfilaria (mf),"[3]; dogs, administration of 20 mg/Kg repeated three times",marked anthelmintic effect
same,Condition of fluke body,"[4]; rats, 50 mg/Kg x 5 orally, autopsy, liver, ""Denatured"" = fluke body is alive but a part of fluke body has changed, one value per rat",dead
same,Presence or absence of fluke egg in fecal matter On 21st day after the last administration,"[4]; rats, 50 mg/Kg x 5 orally, one value per rat",-
CC=CCON(CC=CC)C(C)=O [Compound C10],inhibition in vivo at 30 mg/kg,"[1]; chicken, 30 mg/Kg oral in gelatin capsule, chickens No.1-3",80 to 90%
same,inhibition in vivo at 50 mg/kg,"[1]; chicken, 50 mg/Kg oral in gelatin capsule, chickens No.1-3",100%
same,inhibition in vivo at 25 ppm,"[6]; feed or water, chicken, 25 ppm in feed",80 to 90%
same,inhibition in vivo at 50 ppm,"[6]; feed or water, chicken, 50 ppm in feed",100%
same,Change of E.P.G. 7th day,"[2]; dog, Strongyloides stercoralis, 30 mg/Kg oral in gelatin capsule, one administration",0
same,Change of E.P.G. Before administration,"[2]; dog, Strongyloides stercoralis, before 30 mg/Kg oral (baseline)","2,300 and 3,100"
same,anthelmintic effect,"[2]; dogs, one administration of 30 mg/Kg",marked anthelmintic effect
same,anthelmintic effect,[10],marked anthelmintic effect
same,Change of E.P.G. 7th day,"[5]; Trichostrongylus colubriformis, 20 mg/Kg oral in gelatin capsule, one administration",0
same,Change of E.P.G. Before administration,"[5]; Trichostrongylus colubriformis, before 20 mg/Kg oral (baseline)","1,800"
